From US20170209547A1, “N[…] USE IN […] AND ANXIETY IN PETS” (DOMES PHARMA, priority 2016, published 2017) come the findings set out here.

The subject of the experiment is male Wistar Han rats. The experiment is described as follows: EDC test (anxiety test with electric probe burying), global anxiety score. It is filed as in vivo, rat. The conditions noted are these: Diazepam 3 mg/kg p.o. 60 min before the test. The method, then:
Forty male Wistar Han rats (Crl:WI(Han), Charles River Laboratories, L'Arbresle, France), weighing from 250 to 275 g were used. Upon receipt, the rats were marked and split into groups of 3 or 4 animals in polycarbonate cages (Eurostandard type IIIH, 425×266×185 mm, Tecniplast, Lyon, France). The animals were housed in a climate-controlled animal house, at a temperature of […] and relative humidity of 50±20%. The rats had food (Teklad Global 2016, Harlan, Ganat, France) and drink ad libitum and were held in a day-night cycle inverted by 12 hours (day from 20:00 to 08:00). […]
The experimental device was placed in a room lit with a low intensity red light. A video camera connected to a digital recorder saved all behavioral sequences so that behavior of interest could be measured later. […]
The electric probe was inserted into the cage before the start of the test. […] After the electric shock, the rat's behavior was recorded for 5 min. […]
The following behaviors were quantified from video recordings made during the tests: • duration probe was buried; • number of stretches in the direction of the probe; • number of approaches to the probe; • number of flights from the probe. […]

`CN1C(=O)CN=C(c2ccccc2)c2cc(Cl)ccc21` [Diazepam]: the “Global anxiety score vs. vehicle group (Mann-Whitney test)” value was “significantly lower”. Also, the “Global anxiety score, Median” value (n = 9, Vehicle median 111) is listed as 41.
